The supplement of paper PMC10307832

Experiments:
Assay in all cases: relative viability (nuclei count vs DMSO), 5 days (fraction); higher = more cells survive
Lapatinib + Luminespib = compound: CS(=O)(=O)CCNCc1ccc(-c2ccc3ncnc(Nc4ccc(OCc5cccc(F)c5)c(Cl)c4)c3c2)o1 [Lapatinib] + CCNC(=O)c1noc(-c2cc(C(C)C)c(O)cc2O)c1-c1ccc(CN2CCOCC2)cc1 [Luminespib] (partner 0.01 µM)
Summary of the method: (§1)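 After 5 days of treatment, lung cancer cells in 1536-well plates were fixed and stained in a single step (final 0.05% Triton X-100, 1% formaldehyde, 1 ug/ml Hoechst) and their nuclei counted on 4× images. Treatment had been applied by pin tool the day after seeding as one drug alone or as a fixed anchor-drug dose with five library-drug doses (not always all listed) in √10 steps. Relative viability is the nuclei count of treated wells divided by that of vehicle wells, and values are medians of duplicate plates.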

Wnt-C59 + Lapatinib = compound: CC1=NC=CC(=C1)C2=CC=C(C=C2)CC(=O)NC3=CC=C(C=C3)C4=CN=CC=C4 [Wnt-C59] + CS(=O)(=O)CCNCc1ccc(-c2ccc3ncnc(Nc4ccc(OCc5cccc(F)c5)c(Cl)c4)c3c2)o1 [Lapatinib] (partner 2 µM)
Summary of the method: as §1

Wnt-C59 + Olaparib = compound: CC1=NC=CC(=C1)C2=CC=C(C=C2)CC(=O)NC3=CC=C(C=C3)C4=CN=CC=C4 [Wnt-C59] + O=C(c1cc(Cc2n[nH]c(=O)c3ccccc23)ccc1F)N1CCN(C(=O)C2CC2)CC1 [Olaparib] (partner 8 µM)
Summary of the method: as §1

Lapatinib + Alpelisib = compound: CS(=O)(=O)CCNCc1ccc(-c2ccc3ncnc(Nc4ccc(OCc5cccc(F)c5)c(Cl)c4)c3c2)o1 [Lapatinib] + Cc1nc(NC(=O)N2CCC[C@H]2C(N)=O)sc1-c1ccnc(C(C)(C)C(F)(F)F)c1 [Alpelisib] (partner 2 µM)
Summary of the method: as §1

Cell Line | relative viability (Lapatinib + Luminespib; first compound 0.02 µM) | relative viability (Lapatinib + Luminespib; first compound 0.06325 µM) | relative viability (Lapatinib + Luminespib; first compound 0.2 µM) | relative viability (Lapatinib + Luminespib; first compound 0.6325 µM) | relative viability (Lapatinib + Luminespib; first compound 2 µM) | relative viability (Wnt-C59 + Lapatinib; first compound 0.001 µM) | relative viability (Wnt-C59 + Lapatinib; first compound 0.01 µM) | relative viability (Wnt-C59 + Lapatinib; first compound 0.03162 µM) | relative viability (Wnt-C59 + Lapatinib; first compound 0.1 µM) | relative viability (Wnt-C59 + Olaparib; first compound 0.001 µM) | relative viability (Wnt-C59 + Olaparib; first compound 0.01 µM) | relative viability (Wnt-C59 + Olaparib; first compound 0.03162 µM) | relative viability (Wnt-C59 + Olaparib; first compound 0.1 µM) | relative viability (Lapatinib + Alpelisib; first compound 0.02 µM) | relative viability (Lapatinib + Alpelisib; first compound 0.06325 µM) | relative viability (Lapatinib + Alpelisib; first compound 0.2 µM) | relative viability (Lapatinib + Alpelisib; first compound 0.6325 µM) | relative viability (Lapatinib + Alpelisib; first compound 2 µM)
NCI-H520 | 0.21 | 0.226 | 0.26 | 0.242 | 0.233 | 0.809 | 0.894 | 0.878 | 0.827 | 0.299 | 0.313 | 0.381 | 0.357 | 0.961 | 0.805 | 0.912 | 1.02 | 0.807
NCI-H596 | – | 0.879 | 1.04 | 0.944 | 0.756 | 1.07 | 1.1 | 1.2 | 1.13 | 0.7 | 0.664 | 0.742 | 0.745 | 0.481 | 0.48 | 0.425 | 0.554 | 0.446
NCI-H647 | 0.119 | 0.309 | 0.169 | 0.32 | 0.14 | 1.04 | 1.08 | 1.21 | 1.04 | 0.579 | 0.539 | 0.762 | 0.513 | 1.01 | 0.779 | 1.06 | 1.14 | 1.01
NCI-H650 | – | 0.81 | 0.729 | 0.862 | 0.854 | 0.532 | 0.846 | 0.895 | 0.873 | 0.415 | 0.354 | 0.418 | 0.454 | – | 1.04 | 0.998 | 0.953 | 1.2
NCI-H661 | 0.887 | 0.925 | 0.814 | 0.807 | 0.584 | 0.418 | 0.613 | 0.558 | 0.577 | 0.739 | 0.73 | 0.797 | 0.698 | 0.646 | 0.637 | 0.468 | 0.45 | 0.36
NCI-H727 | – | – | 0.285 | 0.278 | 0.431 | 0.891 | 0.761 | 0.787 | 0.966 | 0.691 | 0.697 | 0.823 | 0.677 | 0.515 | 0.484 | 0.472 | 0.558 | 0.366
NCI-H838 | 0.25 | 0.341 | 0.381 | 0.258 | 0.283 | 0.901 | 0.924 | 1.07 | 1.08 | 0.765 | 0.806 | 0.807 | 0.739 | 1.05 | 0.88 | 1.07 | 0.967 | 0.912
NCI-H1355 | – | 0.646 | 0.634 | 0.685 | 0.441 | 1.04 | 0.922 | 1.05 | 0.842 | 0.726 | 0.756 | 0.717 | 0.716 | – | 0.621 | 0.734 | 0.762 | 0.416
NCI-H1395 | 0.849 | 0.761 | 0.706 | 0.599 | 0.663 | 1.03 | 0.972 | 1.1 | 0.991 | 0.497 | 0.444 | 0.411 | 0.424 | – | 0.93 | 1.18 | 0.978 | 1.03
NCI-H1437 | 0.961 | 1.21 | 1.16 | 1.13 | 1.02 | 0.851 | 0.8 | 0.89 | 0.828 | 0.626 | 0.629 | 0.62 | 0.605 | 1 | 0.869 | 1.02 | 0.864 | 0.866
NCI-H1651 | 0.712 | 0.672 | 0.935 | 0.695 | 0.712 | 0.838 | 0.821 | 0.737 | 0.783 | 0.202 | 0.164 | 0.203 | 0.184 | 0.919 | 0.827 | 0.897 | 0.828 | 0.932
NCI-H1666 | 0.869 | 0.955 | 0.922 | 0.725 | 0.502 | 0.675 | 0.516 | 0.659 | 0.75 | 0.732 | 0.758 | 0.711 | 0.817 | 0.744 | 0.835 | 0.671 | 0.485 | 0.244
NCI-H1734 | 0.22 | 0.196 | 0.189 | 0.186 | 0.174 | 0.948 | 1.04 | 1.09 | 1.02 | 0.615 | 0.612 | 0.672 | 0.282 | – | 0.489 | 0.653 | 0.736 | 0.657
NCI-H1755 | 0.421 | 0.423 | 0.349 | 0.579 | 0.378 | 1.01 | 0.98 | 1.03 | 0.952 | 0.944 | 0.851 | 0.888 | 0.798 | 0.906 | 0.873 | 0.915 | 0.888 | 0.789
NCI-H1792 | – | – | 0.413 | 0.403 | 0.255 | 0.866 | 0.982 | 0.991 | 0.913 | 0.487 | 0.48 | 0.525 | 0.385 | 0.723 | 0.633 | 0.75 | 0.666 | 0.576
NCI-H1793 | – | 0.33 | 0.174 | 0.158 | 0.143 | 0.787 | 0.555 | 0.717 | 0.855 | 0.779 | 0.734 | 1.01 | 0.841 | – | – | – | 0.563 | 0.384
NCI-H1915 | – | 0.847 | 0.832 | 0.707 | 0.848 | 0.88 | 0.939 | 1.03 | 0.944 | 0.256 | 0.266 | 0.248 | 0.239 | – | 1.05 | 1.08 | 1.03 | 1.02
NCI-H1944 | 0.723 | 0.435 | 0.623 | 0.552 | 0.522 | 0.745 | 0.795 | 0.866 | 0.769 | 0.463 | 0.396 | 0.343 | 0.388 | – | – | 0.645 | 0.647 | 0.488
